Here are results for 19 compounds from ChEMBL document CHEMBL3046954, “Identification of important structural features of thiazolo[4,5-d]pyrimidines required for potent antifungal activity” (2011).

As usually defined, the MIC is the smallest concentration in the dilution series that meets the test's criterion for growth inhibition.

Converted amounts (≈) assume the structure as drawn.

Assay type in all cases: functional
One test has as its system Candida albicans. As to the kind of experiment: Antifungal activity against Candida albicans MTCC 227 by broth dilution method. Background: Dilution methods test growth across graded concentrations, often in twofold steps.
A further test has as its system Aspergillus niger. As to the kind of experiment: Antifungal activity against Aspergillus niger MTCC 282 by broth dilution method.
The next test has as its system Aspergillus clavatus. As to the kind of experiment: Antifungal activity against Aspergillus clavatus MTCC 1323 by broth dilution method.

For `COc1ccc(Nc2nc3c(sc(=S)n3-c3ccc(Cl)c(Cl)c3)c(=O)n2-c2ccc(OC)cc2)cc1`, the minimum inhibitory concentration (MIC) stood at 0.8 µg/mL (≈ 1.44 µM) with Candida albicans, 4 µg/mL (≈ 7.18 µM) against Aspergillus niger and 0.8 µg/mL (≈ 1.44 µM) against Aspergillus clavatus.
On to `Cc1cccc(C)c1Nc1nc2c(sc(=S)n2-c2ccccc2)c(=O)n1-c1c(C)cccc1C`, for which the MIC against Candida albicans is 4 µg/mL (≈ 8.25 µM); against Aspergillus niger it was 25.6 µg/mL (≈ 52.8 µM); in the test on Aspergillus clavatus, 4 µg/mL (≈ 8.25 µM).
Take NYSTATIN: the MIC was found to be 8 µg/mL with Candida albicans, 7 µg/mL against Aspergillus niger and 7 µg/mL against Aspergillus clavatus.
As to `COc1ccc(Nc2nc3c(sc(=S)n3-c3ccc(OC)cc3)c(=O)n2-c2ccc(OC)cc2)cc1`, the MIC against Candida albicans was determined as 4 µg/mL (≈ 7.71 µM); against Aspergillus niger, 0.5 µg/mL (≈ 0.964 µM); against Aspergillus clavatus, 4 µg/mL (≈ 7.71 µM).
`COc1ccccc1-n1c(=S)sc2c(=O)n(-c3c(C)cccc3C)c(Nc3c(C)cccc3C)nc21`: the MIC with Candida albicans, with Aspergillus niger and against Aspergillus clavatus was 4 µg/mL (≈ 7.77 µM) throughout.
For the compound `COc1ccc(-n2c(=S)sc3c(=O)n(-c4ccccc4OC)c(Nc4ccccc4OC)nc32)cc1`, the MIC against Candida albicans stood at 12.8 µg/mL (≈ 24.7 µM); in the test with Aspergillus niger, 0.4 µg/mL (≈ 0.771 µM); against Aspergillus clavatus, 25.6 µg/mL (≈ 49.4 µM).
The corresponding values for `COc1ccc(Nc2nc3c(sc(=S)n3-c3ccc(F)c(Cl)c3)c(=O)n2-c2ccc(OC)cc2)cc1` are 0.4 µg/mL (≈ 0.739 µM), 4 µg/mL (≈ 7.39 µM) and 0.2 µg/mL (≈ 0.37 µM).
For `OC(Cn1cncn1)(Cn1cncn1)c1ccc(F)cc1F` [FLUCONAZOLE], in that order: 0.5 µg/mL (≈ 1.63 µM), 16 µg/mL (≈ 52.2 µM) and 16 µg/mL (≈ 52.2 µM).
For `COc1ccc(Nc2nc3c(sc(=S)n3-c3ccccc3)c(=O)n2-c2ccc(OC)cc2)cc1`, the MIC came to 0.5 µg/mL (≈ 1.02 µM) against Candida albicans, 0.8 µg/mL (≈ 1.64 µM) in the test with Aspergillus niger and 0.2 µg/mL (≈ 0.409 µM) with Aspergillus clavatus.
As to `CCn1c(=S)sc2c(=O)n(-c3ccc(OC)cc3)c(Nc3ccc(OC)cc3)nc21`, the MIC against Candida albicans was found to be 2 µg/mL (≈ 4.54 µM); against Aspergillus niger, 0.8 µg/mL (≈ 1.82 µM); against Aspergillus clavatus, 16 µg/mL (≈ 36.3 µM).
The corresponding values for `COc1ccccc1Nc1nc2c(sc(=S)n2-c2ccccc2)c(=O)n1-c1ccccc1OC` are 4 µg/mL (≈ 8.19 µM), 12.8 µg/mL (≈ 26.2 µM) and 12.8 µg/mL (≈ 26.2 µM).
For `Cc1ccc(Nc2nc3c(sc(=S)n3-c3ccccc3)c(=O)n2-c2ccc(C)cc2)cc1`, in that order: 0.8 µg/mL (≈ 1.75 µM), 12.8 µg/mL (≈ 28 µM) and 0.8 µg/mL (≈ 1.75 µM).
On to `O=c1c2sc(=S)n(-c3ccccc3)c2nc(Nc2ccccc2)n1-c1ccccc1`, for which the figures for the MIC with Candida albicans, in the test on Aspergillus niger and with Aspergillus clavatus were 4 µg/mL (≈ 9.33 µM), 25.6 µg/mL (≈ 59.7 µM) and 25.6 µg/mL (≈ 59.7 µM), respectively.
As to `O=c1c2sc(=S)n(-c3ccc(F)c(Cl)c3)c2nc(Nc2ccc(Br)cc2)n1-c1ccc(Br)cc1`, the minimum inhibitory concentration (MIC) against Candida albicans, against Aspergillus niger and against Aspergillus clavatus was 4 µg/mL (≈ 6.26 µM) in each case.
For the compound `O=c1c2sc(=S)n(-c3ccc(Cl)c(Cl)c3)c2nc(Nc2ccc(Br)cc2)n1-c1ccc(Br)cc1`, the values for the MIC against Candida albicans, in the test on Aspergillus niger and against Aspergillus clavatus were 0.8 µg/mL (≈ 1.22 µM), 4 µg/mL (≈ 6.1 µM) and 16 µg/mL (≈ 24.4 µM), respectively.
`COc1ccc(Nc2nc3c(sc(=S)n3-c3ccccc3OC)c(=O)n2-c2ccc(OC)cc2)cc1`: the MIC is 16 µg/mL (≈ 30.9 µM) against Candida albicans, 4 µg/mL (≈ 7.71 µM) with Aspergillus niger and 0.8 µg/mL (≈ 1.54 µM) with Aspergillus clavatus.
As for `COc1ccc(Nc2nc3c(sc(=S)n3-c3ccc(Br)cc3)c(=O)n2-c2ccc(OC)cc2)cc1`, the values for the MIC in the test on Candida albicans, against Aspergillus niger and against Aspergillus clavatus were 4 µg/mL (≈ 7.05 µM), 0.4 µg/mL (≈ 0.705 µM) and 12.8 µg/mL (≈ 22.6 µM), respectively.
In the case of `COc1ccc(-n2c(=S)sc3c(=O)n(-c4ccc(F)cc4)c(Nc4ccc(F)cc4)nc32)cc1`, the MIC stood at 0.4 µg/mL (≈ 0.809 µM) in the test on Candida albicans, 0.5 µg/mL (≈ 1.01 µM) in the test on Aspergillus niger and 0.4 µg/mL (≈ 0.809 µM) against Aspergillus clavatus.
Consider `COc1ccc(-n2c(=S)sc3c(=O)n(-c4ccc(Br)cc4)c(Nc4ccc(Br)cc4)nc32)cc1`, for which the MIC in the test with Candida albicans is 0.8 µg/mL (≈ 1.3 µM); with Aspergillus niger it was 4 µg/mL (≈ 6.49 µM); with Aspergillus clavatus, 0.2 µg/mL (≈ 0.324 µM).
